{
  "source": "ChEMBL document CHEMBL3046147",
  "about": "“Synthesis and Herbicidal Activity of 1-Arylalkyl-3-pyrrolin-2-one Derivatives” (J Pestic Sci, 2000)",
  "key": {"Elatine triandra": {"tested_on": "Elatine triandra", "assay": "Herbicidal activity against Elatine triandra at 250 g /ha treated at 1 to 2-pairs of leaf stage measured after 26 days by outdoor concrete pot test", "format": "functional, organism-based"}, "Rotala indica": {"tested_on": "Rotala indica", "assay": "Herbicidal activity against Rotala indica at 500 g /ha treated at 1 to 2-pairs of leaf stage measured after 26 days by outdoor concrete pot test", "format": "functional, organism-based"}, "Lindernia procumbens [1]": {"tested_on": "Lindernia procumbens", "assay": "Herbicidal activity against Lindernia procumbens at 1000 g /ha treated at 1 to 2-pairs of leaf stage measured after 26 days by outdoor concrete pot test", "format": "functional, organism-based"}, "Echinochloa oryzicola [2]": {"tested_on": "Echinochloa oryzicola", "assay": "Herbicidal activity against Echinochloa oryzicola under greenhouse condition assessed as time duration of residual effect at 125 g /ha", "format": "functional"}, "Lindernia procumbens [3]": {"tested_on": "Lindernia procumbens", "assay": "Herbicidal activity against Lindernia procumbens at 250 g /ha treated at 1 to 2-pairs of leaf stage measured after 26 days by outdoor concrete pot test", "format": "functional, organism-based"}, "Pontederia vaginalis": {"tested_on": "Pontederia vaginalis", "assay": "Herbicidal activity against Monochoria vaginalis at 250 g /ha treated at 1.5 to 2-leaf stage measured after 26 days by outdoor concrete pot test", "format": "functional, organism-based"}, "[4]": {"tested_on": "Schoenoplectiella juncoides", "assay": "Herbicidal activity against Schoenoplectiella juncoides at 500 g /ha treated at 1.5 to 2.1-leaf stage measured after 26 days by outdoor concrete pot test", "format": "functional, organism-based"}, "Echinochloa oryzicola [5]": {"tested_on": "Echinochloa oryzicola", "assay": "Herbicidal activity against Echinochloa oryzicola under greenhouse condition assessed as growth inhibition at 1000 g /ha measured after 20 days", "format": "functional, organism-based"}, "Echinochloa oryzicola [6]": {"tested_on": "Echinochloa oryzicola", "assay": "Herbicidal activity against Echinochloa oryzicola under greenhouse condition assessed as growth inhibition at 1000 g /ha measured after 13 days", "format": "functional, organism-based"}, "Echinochloa oryzicola [7]": {"tested_on": "Echinochloa oryzicola", "assay": "Herbicidal activity against Echinochloa oryzicola under greenhouse condition assessed as growth inhibition at 250 g /ha measured after 27 days", "format": "functional, organism-based"}, "Echinochloa oryzicola [8]": {"tested_on": "Echinochloa oryzicola", "assay": "Herbicidal activity against Echinochloa oryzicola under greenhouse condition assessed as growth inhibition at 250 g /ha measured after 20 days", "format": "functional, organism-based"}, "Echinochloa oryzicola [9]": {"tested_on": "Echinochloa oryzicola", "assay": "Herbicidal activity against Echinochloa oryzicola under greenhouse condition assessed as growth inhibition at 250 g /ha measured after 13 days", "format": "functional, organism-based"}, "Echinochloa oryzicola [10]": {"tested_on": "Echinochloa oryzicola", "assay": "Herbicidal activity against Echinochloa oryzicola under greenhouse condition assessed as growth inhibition at 500 g /ha measured after 42 days", "format": "functional, organism-based"}, "Echinochloa oryzicola [11]": {"tested_on": "Echinochloa oryzicola", "assay": "Herbicidal activity against Echinochloa oryzicola under greenhouse condition assessed as growth inhibition at 500 g /ha measured after 13 days", "format": "functional, organism-based"}, "Cyperus serotinus [12]": {"tested_on": "Cyperus serotinus", "assay": "Herbicidal activity against Cyperus serotinus at 500 g /ha treated at 1 to 1.5-leaf stage measured after 26 days by outdoor concrete pot test", "format": "functional, organism-based"}, "Cyperus serotinus [13]": {"tested_on": "Cyperus serotinus", "assay": "Herbicidal activity against Cyperus serotinus at 1000 g /ha treated at 1 to 1.5-leaf stage measured after 26 days by outdoor concrete pot test", "format": "functional, organism-based"}, "Echinochloa oryzicola [14]": {"tested_on": "Echinochloa oryzicola", "assay": "Herbicidal activity against Echinochloa oryzicola grown in water-drained pot under greenhouse condition assessed as growth inhibition at 500 g /ha measured after 42 days", "format": "functional, organism-based"}, "Echinochloa oryzicola [15]": {"tested_on": "Echinochloa oryzicola", "assay": "Herbicidal activity against Echinochloa oryzicola grown in water-drained pot under greenhouse condition assessed as growth inhibition at 500 g /ha measured after 20 days", "format": "functional, organism-based"}, "Echinochloa oryzicola [16]": {"tested_on": "Echinochloa oryzicola", "assay": "Herbicidal activity against Echinochloa oryzicola grown in water-drained pot under greenhouse condition assessed as growth inhibition at 125 g /ha measured after 33 days", "format": "functional, organism-based"}, "Echinochloa oryzicola [17]": {"tested_on": "Echinochloa oryzicola", "assay": "Herbicidal activity against Echinochloa oryzicola grown in water-drained pot under greenhouse condition assessed as growth inhibition at 125 g /ha measured after 27 days", "format": "functional, organism-based"}, "Echinochloa oryzicola [18]": {"tested_on": "Echinochloa oryzicola", "assay": "Herbicidal activity against Echinochloa oryzicola grown in water-drained pot under greenhouse condition assessed as growth inhibition at 125 g /ha measured after 20 days", "format": "functional, organism-based"}, "Echinochloa oryzicola [19]": {"tested_on": "Echinochloa oryzicola", "assay": "Herbicidal activity against Echinochloa oryzicola at 1000 g /ha treated at 1.5 to 2-leaf stage measured after 26 days by outdoor concrete pot test", "format": "functional, organism-based"}, "Oryza sativa": {"tested_on": "Oryza sativa", "assay": "Phytotoxicity against two-leaf stage Oryza sativa cv. Nihonbare (rice) planted 1 cm depth measured after […]", "format": "organism-based", "settings": "in vivo"}, "Echinochloa oryzicola [20]": {"tested_on": "Echinochloa oryzicola", "assay": "Herbicidal activity against Echinochloa oryzicola under greenhouse condition assessed as growth inhibition at 1000 g /ha measured after 6 days", "format": "functional, organism-based"}},
  "note": "The source made the active and inactive calls. The calls are words filed in the database; no cut-off is given here.",
  "data": [
    {"molecule": "CC1=C(c2ccccc2)C(=O)N(C(C)(C)c2nc3ccccc3s2)C1", "values": [
      {"measurement": "growth inhibition (GI)", "setting": "Elatine triandra", "result": "Active"},
      {"measurement": "growth inhibition (GI)", "setting": "Rotala indica", "result": "Active"},
      {"measurement": "growth inhibition (GI)", "setting": "Lindernia procumbens [1]", "result": "Active"},
      {"measurement": "Time", "setting": "Echinochloa oryzicola [2]", "result": 30, "unit": "days"},
      {"measurement": "growth inhibition (GI)", "setting": "Lindernia procumbens [3]", "result": "Active"},
      {"measurement": "growth inhibition (GI)", "setting": "Pontederia vaginalis", "result": "inactive"},
      {"measurement": "growth inhibition (GI)", "setting": "[4]", "result": "inactive"},
      {"measurement": "growth inhibition (GI)", "setting": "Echinochloa oryzicola [5]", "result": "Active"},
      {"measurement": "growth inhibition (GI)", "setting": "Echinochloa oryzicola [6]", "result": "Active"},
      {"measurement": "growth inhibition (GI)", "setting": "Echinochloa oryzicola [7]", "result": "inactive"},
      {"measurement": "growth inhibition (GI)", "setting": "Echinochloa oryzicola [8]", "result": "Active"},
      {"measurement": "growth inhibition (GI)", "setting": "Echinochloa oryzicola [9]", "result": "Active"},
      {"measurement": "growth inhibition (GI)", "setting": "Echinochloa oryzicola [10]", "result": "Active"},
      {"measurement": "growth inhibition (GI)", "setting": "Echinochloa oryzicola [11]", "result": "Active"},
      {"measurement": "growth inhibition (GI)", "setting": "Cyperus serotinus [12]", "result": "Active"},
      {"measurement": "growth inhibition (GI)", "setting": "Cyperus serotinus [13]", "result": "Active"},
      {"measurement": "growth inhibition (GI)", "setting": "Echinochloa oryzicola [14]", "result": "inactive"},
      {"measurement": "growth inhibition (GI)", "setting": "Echinochloa oryzicola [15]", "result": "Active"},
      {"measurement": "growth inhibition (GI)", "setting": "Echinochloa oryzicola [16]", "result": "inactive"},
      {"measurement": "growth inhibition (GI)", "setting": "Echinochloa oryzicola [17]", "result": "inactive"},
      {"measurement": "growth inhibition (GI)", "setting": "Echinochloa oryzicola [18]", "result": "inactive"},
      {"measurement": "growth inhibition (GI)", "setting": "Echinochloa oryzicola [19]", "result": "Active"},
      {"measurement": "MTD", "setting": "Oryza sativa", "result": 2.5, "unit": "g/acre"},
      {"measurement": "growth inhibition (GI)", "setting": "Echinochloa oryzicola [20]", "result": "Active"}
    ]}
  ]
}
